Where two headings read alike, the source gives them in different places.
What was measured:
[1] = tested on: HEK293 cells; experiment: Calcium mobilization induced by compound alone; assay type: cell-based; conditions: Homo sapiens, HEK293; read-out: Calcium transient (% 50014);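 further: percent of response to 10 µM reference CCG-50014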
Protocol: (§1) Calcium Mobilization Experiments:
(§2) A stable cell line was developed based upon the HEK-293 Flp-In TREx cell line (Invitrogen, Carlsbad, Calif.) that stably express the muscarinic M3 receptor and have human RGS4 expression under doxycycline control. Cells were maintained in DMEM supplemented with 10% fetal bovine serum and Penicillin (100 units/ml)-Streptomycin (100 μg/ml) under 5% CO2 at 37° C. For experiments, cells were split into 96-well black, clear bottom, poly-D-lysine coated microtiter plates (Nunc, Cat. #152037) at a density of 20,000 cells/well in DMEM containing 10% fetal bovine serum and Penicillin (100 units/ml), Streptomycin (100 μg/ml). RGS4 expression was induced by supplementing the medium with 1 μg/mL doxycycline for 24-48 hours before experimentation. Cells were loaded with Fluo-4 No Wash dye in buffer for 30 minutes at 37° C. Compounds and/or carbachol were added to the wells and the fluorescence intensity was measured using a FlexStation (Molecular Devices, Sunnyvale, Calif.) plate reader. Data analysis was performed by calculating the area under the curve or maximal fluorescence intensity from a 120 second kinetic measurement.

[2] = target: RGS4 (Homo sapiens (Human), UniProt P49798); experiment: FCPIA: Gαo binding to RGS4; conditions: for RGS4 Hill Slope: Table 3
Source text: (§3) FCPIA Dose Response and Reversibility Experiments:

[3] = target: RGS8 (Homo sapiens (Human), UniProt P57771); experiment: FCPIA: Gαo binding to RGS8; conditions: for RGS8 Hill Slope: Table 3; for IC50: read-out: RGS8 IC50
Source text: as §3

[4] = target: RGS4; experiment: FCPIA: Gαo binding to RGS4; conditions: for RGS4 Hill Slope: Table 3
Source text: as §3

[5] = tested on: M3 muscarinic receptor; experiment: Carbachol-induced Ca2+ response, M3 cells without RGS4 dependence; assay type: cell-based; conditions: 10 μM (FIG. 20) or as stated
Protocol: as §1, §2
as §2, with “Calcium signaling transients: A” for “A”, “units/ml)-Streptomycin” for “units/ml), Streptomycin”

[6] = target: papain (Carica papaya (Papaya), UniProt P00784); experiment: biochemical; assay type: biochemical
Source text: Papain (Sigma-Aldrich, St. Louis, Mo.) activity was monitored by the increase in fluorescence caused by the liberation of fluorescein from autoquenched fluorescein-conjugated casein (AnaSpec, San Jose, Calif.).

[7] = Heart rate and blood pressure in freely-moving rats; assay type: in vivo; conditions: 0.1 mg/kg intraperitoneal vs saline
Source text: The muscarinic agonist carbachol can induce a transient bradycardic effect by activating M2 receptors in the SAN.

[8] = Table 3, duplex FCPIA, average of two experiments
[9] = Table 2, mean of two independent FCPIA experiments

RGS8, sequence (P57771 other isoform, or with tags, fused parts or gaps): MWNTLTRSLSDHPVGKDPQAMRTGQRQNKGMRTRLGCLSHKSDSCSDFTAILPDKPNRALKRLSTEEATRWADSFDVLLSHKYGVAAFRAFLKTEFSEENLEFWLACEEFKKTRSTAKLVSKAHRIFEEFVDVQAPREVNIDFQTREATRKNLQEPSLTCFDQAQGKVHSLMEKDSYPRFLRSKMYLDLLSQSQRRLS
RGS4 (Homo sapiens (Human), UniProt P49798), sequence (P49798 whole entry, looked up): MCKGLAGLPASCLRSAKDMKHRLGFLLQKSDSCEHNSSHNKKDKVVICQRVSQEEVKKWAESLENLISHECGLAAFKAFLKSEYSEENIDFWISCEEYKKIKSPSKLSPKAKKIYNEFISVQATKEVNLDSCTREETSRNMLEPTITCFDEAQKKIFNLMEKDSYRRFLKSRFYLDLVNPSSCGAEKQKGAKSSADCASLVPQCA
papain, sequence (P00784 134-345): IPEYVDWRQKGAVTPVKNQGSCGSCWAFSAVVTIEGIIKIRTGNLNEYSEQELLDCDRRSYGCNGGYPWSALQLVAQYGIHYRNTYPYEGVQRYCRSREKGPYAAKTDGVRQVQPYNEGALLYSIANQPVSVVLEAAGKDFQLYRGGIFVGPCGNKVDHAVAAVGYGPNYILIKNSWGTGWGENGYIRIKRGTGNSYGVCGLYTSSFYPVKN

Compound | RGS8 Hill Slope [3] | IC50 ([3]; Table 6, FCPIA) [µM] | IC50 [3, 8] [µM] | RGS4 Hill Slope [4] | Emax at 10 µM [1] [%] | also measured
Cc1ccc(-n2sc(=O)n(Cc3ccccc3)c2=O)cc1 [CCG-203724, 2-p-tolyl-4-benzyl-1,2,4-thiadiazolidine-3,5-dione] | −0.94 | 7.5 |  |  | 177 | Fold Selectivity (R8/R4) [2]: 536; Fold Selectivity (RGS8 IC50/ RGS4 IC50) [2]: 536; Selectivity RGS4/ RGS8 [2]: 519; RGS4 Hill Slope [2]: −3.63; IC50 [2, 8]: 14 nM
O=c1sn(-c2ccc(Cl)cc2)c(=O)n1Cc1ccc(F)cc1 [CCG-203727, 2-(4-chlorophenyl)-4-(4-fluorobenzyl)-1,2,4-thiadiazolidine-3,5-dione] | −1.06 |  | 7.6 |  | 158 | Fold Selectivity (R8/R4) [2]: 543; Fold Selectivity (RGS8 IC50/ RGS4 IC50) [2]: 543; Selectivity RGS4/ RGS8 [2]: 564; RGS4 Hill Slope [2]: −1.66; IC50 [2, 8]: 14 nM
CCCCn1sc(=O)n(CC(C)C)c1=O [CCG-203764, 2-butyl-4-isobutyl-1,2,4-thiadiazolidine-3,5-dione] | −0.44 | 98 |  |  | 142 | Fold Selectivity (R8/R4) [2]: 2513; Fold Selectivity (RGS8 IC50/ RGS4 IC50) [2]: 2513; Selectivity RGS4/ RGS8 [2]: 2540; RGS4 Hill Slope [2]: −0.87; IC50 [2, 8]: 39 nM
O=C1C=C(Br)C(=O)N1Cc1ccccc1 [CCG-203780] |  |  |  |  |  | IC50 [2, 9]: 32000 nM; IC50 [3, 9]: > 100 µM
Cc1cccc(-n2sc(=O)n(Cc3ccccc3)c2=O)c1 [CCG-203785, 2-(3-methylphenyl)-4-benzyl-1,2,4-thiadiazolidine-3,5-dione] | −0.73 |  | 21.3 |  | 145 | Fold Selectivity (R8/R4) [2]: 561; Fold Selectivity (RGS8 IC50/ RGS4 IC50) [2]: 561; Selectivity RGS4/ RGS8 [2]: 558; RGS4 Hill Slope [2]: −1.13; IC50 [2, 8]: 38 nM
CCn1sc(=O)n(CCOC)c1=O [CCG-203920, 2-ethyl-4-(2-methoxyethyl)-1,2,4-thiadiazolidine-3,5-dione] |  | 36.1 |  |  |  | IC50 ([4]; Table 6, FCPIA, read-out: RGS4 IC50): 54.3 nM; effect on carbachol-induced Ca2+ response (RGS-independent) [5]: no effect
CCN1C(=O)C=CC1=O [N-ethyl maleimide, reference compound] |  |  |  |  |  | inhibition of papain by general cysteine alkylators [6]: no effect; effect on RGS8 ([3]; FCPIA): no effect
COc1ccc(Cn2c(=O)sn(-c3ccccc3)c2=O)cc1 [S24, 2-phenyl-4-(4-methoxybenzyl)-1,2,4-thiadiazolidine-3,5-dione] | −0.77 | 7.2 | 7.2 | −1.78 | 18.6 | 
C[N+](C)(C)CCOC(N)=O [carbachol, reference compound] |  |  |  |  |  | heart rate after carbachol [7]: significant decrease in heart rate
NC(=O)CI [iodoacetamide, reference compound] |  |  |  |  |  | inhibition of papain by general cysteine alkylators [6]: dose-dependent; effect on Gα0 binding to the RGS proteins tested ([2]; FCPIA): no effect

Now from value to molecule, other results behind:

RGS8 Hill Slope [3] | IC50 ([3]; Table 6, FCPIA) [µM] | IC50 [3, 8] [µM] | RGS4 Hill Slope [4] | Compound | Emax at 10 µM [1] [%] | also measured
−0.73 | 9.9 | 9.9 | −3.26 | COc1ccc(Cn2c(=O)sn(-c3ccc(Cl)cc3)c2=O)cc1 [S25, 2-(4-chlorophenyl)-4-(4-methoxybenzyl)-1,2,4-thiadiazolidine-3,5-dione] | 84.6 | 
−0.81 | 17.6 | 17.6 | −1.27 | COc1ccc(Cn2c(=O)sn(-c3ccc(OC)cc3)c2=O)cc1 [S26, 2-(4-methoxyphenyl)-4-(4-methoxybenzyl)-1,2,4-thiadiazolidine-3,5-dione] | 54.9 | 
−1.50 | 36 | 36 | −1.04 | COc1ccc(Cn2c(=O)sn(-c3ccc(Cl)c(Cl)c3)c2=O)cc1 [S27, 2-(3,4-dichlorophenyl)-4-(4-methoxybenzyl)-1,2,4-thiadiazolidine-3,5-dione] | 63.4 | 
−0.64 | 92.9 | 92.9 | −2.42 | COc1ccc(Cn2c(=O)sn(Cc3ccc(C)cc3)c2=O)cc1 [S28, 2-(4-methylbenzyl)-4-(4-methoxybenzyl)-1,2,4-thiadiazolidine-3,5-dione] | 169 | 
−0.80 | 7.5 | 7.5 | −0.96 | O=c1sn(-c2ccccc2)c(=O)n1Cc1ccc(Cl)c(Cl)c1 [S29, 2-phenyl-4-(3,4-dichlorobenzyl)-1,2,4-thiadiazolidine-3,5-dione] | 47.6 | 
−0.76 | 16.7 | 16.7 | −1.31 | O=c1sn(-c2ccc(Cl)cc2)c(=O)n1Cc1ccc(Cl)c(Cl)c1 [S30, 2-(4-chlorophenyl)-4-(3,4-dichlorobenzyl)-1,2,4-thiadiazolidine-3,5-dione] | -0.1 | 
−0.64 | 5.9 | 5.9 | −0.86 | COc1ccc(-n2sc(=O)n(Cc3ccc(Cl)c(Cl)c3)c2=O)cc1 [S31, 2-(4-methoxyphenyl)-4-(3,4-dichlorobenzyl)-1,2,4-thiadiazolidine-3,5-dione] | 202 | 
−0.85 | 125 | 125 | −0.87 | O=c1sn(-c2ccc(Cl)c(Cl)c2)c(=O)n1Cc1ccc(Cl)c(Cl)c1 [S32, 2-(3,4-dichlorophenyl)-4-(3,4-dichlorobenzyl)-1,2,4-thiadiazolidine-3,5-dione] | 49.6 | 
−0.71 | 109 | 109 | −1.33 | Cc1ccc(Cn2sc(=O)n(Cc3ccc(Cl)c(Cl)c3)c2=O)cc1 [S33, 2-(4-methylbenzyl)-4-(3,4-dichlorobenzyl)-1,2,4-thiadiazolidine-3,5-dione] | 51.7 | 
 | > 100 | > 100 | −1.36 | Cc1ccc(-n2sc(=O)n(Cc3ccc(C(C)(C)C)cc3)c2=O)cc1 [S34, 2-p-tolyl-4-(4-t-butylbenzyl)-1,2,4-thiadiazolidine-3,5-dione] | 18.9 | 
 | > 100 | > 100 | −1.72 | CC(C)(C)c1ccc(Cn2c(=O)sn(-c3ccccc3)c2=O)cc1 [S35, 2-phenyl-4-(4-t-butylbenzyl)-1,2,4-thiadiazolidine-3,5-dione] | 14.4 | 
 | > 100 | > 100 | −1.70 | CC(C)(C)c1ccc(Cn2c(=O)sn(-c3ccc(C(C)(C)C)cc3)c2=O)cc1 [S36, 2-(4-t-butylphenyl)-4-(4-t-butylbenzyl)-1,2,4-thiadiazolidine-3,5-dione] | 14.8 | 
 | 144 |  |  | O=C1C=C(Br)C(=O)N1Cc1ccccc1 [S37, 1-benzyl-3-bromo-1H-pyrrole-2,5-dione] |  | IC50 ([2]; Table 6, FCPIA): 32900 nM

Source: patent publication US8865750B2, “Small molecule inhibitors of RGS proteins” (The Regents of The University of Michigan, priority 2011, dated 2014)
